Melting point data for 86 compounds are collected here from a melting point compilation (Tetko et al.; mined from patent text by program, amines drawn as free bases though some values may be those of a salt).

As usually defined, the melting point is the temperature, or range, at which the solid turns liquid.

`O=C1N[C@H](Cc2cccc(OC(F)(F)C(F)F)c2)[C@H](c2ccc(Oc3ccccc3)cc2)O1` (racemic) gave a melting point of 90 to 91 °C.

The compound `CCCCOC(=O)NC(=O)C1c2ccccc2Oc2ccccc21` gave a melting point of 180 to 183 °C. The value for `COc1ccc(S(=O)(=O)N2CSC(C)(C)[C@@H]2C(=O)NO)cc1` was 68 to 71 °C; that for `COc1ccc(N(C)C(=O)CN(C(=O)CNC(=O)Nc2cccc(C)c2)c2ccccc2)cc1` was 202 °C. In turn, `CO[C@@H]1CC[C@@H](NC(N)=O)c2ccccc21` (relative stereo) came in with a melting point of 159 to 165 °C. As to `CC(C)(C)OC(=O)c1cnc(NC(=O)[C@H](CC2CCCC2)c2ccc(S(C)(=O)=O)c(Cl)c2)cn1`, the melting point is 121 to 127 °C.

For the compound `Nc1cccc(Cn2c(-c3ccc(O)cc3)ccc2-c2ccccc2Cl)n1`, the melting point lay in the range of 170 to 172 °C. The compound `CCCC(=O)Oc1ccc(OC(=O)CCC)c(C#N)c1C#N` gave a melting point of 86 to 87 °C. The value for `O=C1C2=NCCCN2c2cc(Cl)c([N+](=O)[O-])cc21` was 152 to 165 °C; that for `O=C(O)c1ccc2nc3c4nc5cc(C(=O)O)ccc5nc4c4nc5cc(C(=O)O)ccc5nc4c3nc2c1` was above 390 °C; that for `Nc1nsnc1-c1ccc(Cl)cc1` was 132 to 133 °C. The result for `N#CCc1c[nH]c2ccc(OCc3ccccc3)c(Cl)c12` reads 130 to 132 °C.

In turn, `CCC(Oc1cccc(C(F)(F)F)c1Cl)C1=NCCN1` (stereo unspecified) yielded a melting point of 102 to 103 °C.

Regarding `CCN(CC)C(=O)Oc1cc(-c2cccs2)nc2ccccc12`, the melting point came out at 72 °C. The value for `CCOCc1nc2c(N)nc3cc(C=O)ccc3c2n1CC(C)(C)O` was 203 to 205 °C; that for `O=C1c2ccccc2C(=O)N1CC#Cc1ccc2c(c1)C(c1ccccc1F)=NCc1nnc(C(F)(F)F)n1-2` was 204 to 206 °C; that for `O=C1c2ccc(O)cc2OCC1Cc1cccnc1` (stereo unspecified) was 181 to 190 °C. The compound `CCCCSc1cc(C(=O)O)cc(S(N)(=O)=O)c1-c1ccccc1` registered a melting point of 75 to 77 °C. The value for `Cc1ccncc1OC1SCC(O)C(O)C1O` (stereo unspecified) was 236 °C. As to `O=C(N[C@H](Cc1ccc(C(F)(F)F)cc1)[C@@H](O)c1cccc2ccccc12)c1cccc2ccccc12` (racemic), the melting point lay in the range of 217 to 218 °C.

The compound `O=C(O)COc1cccc(CCc2cc(-c3ccccc3)n(-c3ccccc3)n2)c1` displayed a melting point of 125 to 127 °C. For `O=C(O)CSc1ccc([N+](=O)[O-])cc1C(=O)O`, the melting point is 216 to 217 °C. `CCCCc1nc2ccccn2c(=O)c1-c1ccc(Cl)c(C)c1` gave a melting point of 122 to 124 °C. The value for `Cc1cc(Cl)c(C)c(S(=O)(=O)Nc2onc(C)c2Br)c1` was 148 to 150 °C. For the compound `CC(=O)C(=Cc1ccc([N+](=O)[O-])o1)C(C)=O`, the melting point lay in the range of 117 to 120 °C. The result for `NNC(=O)c1ccc2c(c1)CCO2` reads 148 to 149 °C; that for `Cc1cc(=O)c(C(=O)Nc2nnc(C)s2)c(C)o1`, 203 to 204 °C; that for `CC1(C)Oc2ccsc2C(N)C1O` (stereo unspecified), 111 to 116 °C. The value for `Cc1nc(N2CCN(Cc3cccc(C(F)(F)F)c3)C2=O)sc1-c1cc[nH]n1` was 209 to 214 °C. `CCOC(=O)C(C)Oc1ccc(Nc2ccc(C(F)(F)F)cc2[N+](=O)[O-])cc1` (stereo unspecified) had a melting point of 61 to 63 °C.

Regarding `COc1cccc(C23CCN(C(=O)c4ccccc4)CC2CCC(=O)C3)c1` (stereo unspecified), the melting point came to 78 °C. For `COC(=O)Nc1nc2ccc(Sc3ccccc3)cn2c1Br`, the melting point lay within 165 to 168 °C. In turn, `CCC(CC)N(O)C(=O)Nc1ccc(Cc2ccccc2)cc1` gave a melting point of 132 to 134 °C. Regarding `O=C(CC1CCCCC1)Nc1c(Cl)ccc2nc(N3CC[C@H](NS(=O)(=O)C(F)(F)F)C3)ccc12`, the melting point fell in the range of 178 to 200 °C. On to `CCCCNc1nc(-c2ccc(=O)n(C)n2)c(-c2ccccc2)nc1N`, for which the melting point lay in the range of 253 to 255 °C.

Take `COc1ccc2ccc(-n3nc(OCCN4CCOCC4)cc3C)cc2c1`: the melting point lay in the range of 143 to 147 °C. The result for `CCc1cc(CCNc2ncnc3c(F)ccc(F)c23)ccc1Oc1cc(C(F)(F)F)ccn1` reads 121 to 122 °C.

As to `Nc1sccc1C(=O)c1ccc(F)cc1`, the melting point turned out to be 178 °C. The value for `CCCSc1ccc([N+](=O)[O-])c(NC(=S)NC(=O)OC)c1` was 122 to 125 °C; that for `COc1ccc(C(=NO)c2ccccc2F)c(O)c1C` was 167 to 169 °C; that for `O=C(CCCCCCC(=O)N1CCN(CC(c2ccccc2)c2ccccc2)CC1)NO` was 117 to 118 °C.

`COc1cccc(C=CCN2CCc3nc(N)sc3CC2)c1`: the melting point lay within 120 to 124 °C.

`CN1CCc2ccc(O)cc2[C@@H](c2ccccc2)C1`: the melting point was 90 to 92 °C.

Take `CS(=O)(=O)c1sc(S(N)(=O)=O)cc1CCO`: the melting point was in the range of 120 to 124 °C. The result for `Cc1ccc(C(=O)c2sc(Nc3ccc(S(N)(=O)=O)cc3)nc2N)c(C)c1` reads 242 to 244 °C. The value for `Cc1cn(-c2cccc([N+](=O)[O-])c2)cn1` was 119 to 120 °C. In turn, `Cc1cc(Cc2ccc(C(=O)O)cc2)n(C)c1C(=O)c1ccc(Cl)cc1` displayed a melting point of 245 to 247 °C.

Consider `O=C(O)C1Cc2ccccc2N1S(=O)(=O)c1ccc(-c2cccc(Cl)c2)cc1` (stereo unspecified), for which the melting point stood at 78 °C.

On to `CCOC(=O)c1cccc(-c2ccc3cc[nH]c3c2)c1`, for which the melting point lay in the range of 120 to 121 °C. The result for `CCCCCCC1=CC(=C(Br)Br)NC1=O` reads 103 to 105 °C. The result for `CCOC(=O)C1=C(C)NC(C)=C(C(=O)OCC)C1c1ccccc1[N+](=O)[O-]` reads 120 to 121 °C; that for `CCN(CC)C(=O)CN1C(=O)C(NC(=O)Nc2ccc(Cl)cc2)N=C(c2ccccc2)c2ccccc21` (stereo unspecified), 284 to 285 °C. As to `CCCCCN(CCC12CC3CC(CC(C3)C1)C2)C(=O)NCc1ccncc1`, the melting point lay in the range of 96.5 to 108 °C. The compound `COc1ccc(C(=C2CCN(CCc3c(C)nc4scc(C)n4c3=O)CC2)c2ccc(F)cc2)cc1` registered a melting point of 140 °C. As to `CC(=O)N1CC(C)=NN(c2cc(Cl)c(Cc3ccc(Cl)cc3)c(Cl)c2)C1=O`, the melting point fell in the range of 101 to 102 °C. As for `O=S(=O)(c1cccs1)N(CCN1CCOCC1)c1cccc2cc(-c3nccs3)[nH]c12`, the melting point is 192 to 193 °C. The result for `COc1c2c(cc3c1OCO3)C(=O)CN(C)C2` reads 116 to 119 °C. The value for `O=C1NC(=O)C(Nc2ccc(CCNC[C@H](O)COc3ccc(Oc4ccccc4)cc3)cc2)S1` (stereo partly specified) was 72 to 74 °C; that for `CCc1cccc(C)c1COc1cc(C(=O)N(C)C)cc2c1nc(C)n2C` was 161 to 162 °C; that for `O[C@@H](CNC1CN(C(c2ccccc2)c2ccccc2)C1)COc1ccc(OCc2ccccc2)cc1` was 109 to 110 °C. The result for `O=C(Nc1cccc([N+](=O)[O-])c1)c1ccc([N+](=O)[O-])cc1` reads 229 to 232 °C; that for `Cn1cc(-c2cc3cccnc3[nH]2)c2cc(OC3(C(=O)O)CCC3)ccc21`, 168 to 169 °C; that for `CCOC(=O)c1cnc2c(NC(=O)c3c(Cl)cccc3Cl)cccc2c1COC(C)=O`, 138 to 142 °C.

As to `COc1cc(Nc2c(C#N)cnc3cc4cc(OCCCN5CCOCC5)c(OC)cc4cc23)c(Cl)cc1Cl`, the melting point lay in the range of 205 to 208 °C.

Consider `CCOC(=O)C(=Cc1cccn2cc(C(F)(F)F)nc12)N=[N+]=[N-]`, for which the melting point is 140 to 142 °C.

`Cn1cc(C(=O)NCc2ccc(Cl)cc2)c(=O)c2cc(CN3CCC(F)(F)CC3)ccc21` had a melting point of 214 to 215 °C.

`CCOC(=O)c1ccc(-c2ncc(-c3ccc(Cl)cc3)s2)cc1`: the melting point was in the range of 167 to 168 °C. The compound `CC(C)(C)OC(=O)N1CCN(C(=O)c2cc(C(F)(F)F)cc(C(F)(F)F)c2)[C@H](Cc2c[nH]c3ccccc23)C1` had a melting point of 155 to 156 °C. `COc1c2c(c(OC)c(OC)c1OC)CCC(CCOc1cccnc1)CC2` came in with a melting point of 111 to 113 °C. The result for `COc1cc(C(=O)c2ncc3ccc(C(N)=O)cn23)ccc1[N+](=O)[O-]` reads 289 °C. In turn, `CC(C)(C)OC(=O)N1CCC(Cc2cn(S(=O)(=O)c3ccccc3)c3ccc(F)cc23)CC1` gave a melting point of 155 to 157 °C. `CC(=O)Nc1ccc(Nc2ncnc3[nH]cc(C(=O)c4ccccc4)c23)cc1`: the melting point lay within 263 to 264 °C. The result for `CC(=O)OC1=CC(NC(=O)CCc2ccc(Cl)cc2Cl)C(=O)N(C)c2ccccc21` (stereo unspecified) reads 142 to 144 °C.

In turn, `O=C(NCc1ccc(Cl)cc1)c1cn(Cc2ccccc2)c2sc(CN3CCOCC3)cc2c1=O` came in with a melting point of 225 to 226 °C. The value for `Cc1cccc(OC2CCOC2=O)c1[N+](=O)[O-]` (stereo unspecified) was 82 to 84 °C; that for `Cn1nc(Cl)c(Cl)c1S(=O)(=O)CCCl` was 56 to 59 °C.

`Cc1cccc(-c2nc(NC(=O)c3ccc(Cl)nc3)sc2-c2ccnc(NC3CCCC3)c2)c1` had a melting point of 211 to 212 °C. With `CCOc1ccc2[nH]c(=O)n(CCN3CCOCC3)c2c1`, the melting point was found to be 107 °C.

For the compound `CC(C)(C)c1ccc([Si](C)(C)COc2cc(C(C)(C)C)c(O)c(C(C)(C)C)c2)cc1`, the melting point fell in the range of 114 to 115 °C.

In the case of `CCCC[C@H](NC(=O)[C@H](CC(C)C)NC(=O)c1ccc(C(=O)OC)cc1)C(=O)CSCc1ccco1`, the melting point is 100 to 102 °C. The value for `Nc1cnc2cc(F)c(F)cc2c1` was 155 °C; that for `CC(=O)SCC(C)C(=O)N(CC(=O)O)Cc1ccco1` (stereo unspecified) was 140 to 141 °C. The value for `CCCc1cnc2c(NC(=O)c3c(Cl)cccc3Cl)cccc2c1-n1ccnc1` was 160 to 161 °C; that for `CCCCc1sc(C(=O)O)c2c1-c1nn(C)cc1CC2` was 244 to 245 °C. `CCc1cc(OCC(=O)O)c(C)cc1SCc1sc(-c2ccc(C(F)(F)F)cc2)nc1C` displayed a melting point of 169 to 171 °C. For `Cc1cc(NS(=O)(=O)c2nc3nc(Cl)cc(Cl)n3n2)ccc1Br`, the melting point was in the range of 232 to 234 °C.
